Data set [1] is described as follows: refractive index (Na D-line) (dimensionless); xn = mol fraction of the nth substance listed. As to conditions: 303.15 K, 101 kPa, Liquid, Standard Abbe refractometry.
Data set [2] is described as follows: refractive index (Na D-line) (dimensionless). As to conditions: 303.15 K; 101.33 kPa; Liquid; Standard Abbe refractometry.

± gives the expanded uncertainty stated by the source.

`C[N+](C)(C)CCO.[Cl-]` [choline chloride] + OCC(O)CO: in data set [1] (x1 = 0.333), the refractive index amounted to 1.4853 ± 0.0007. Take `C[N+](C)(C)CCO.[Cl-]` [choline chloride] + OCCO: the refractive index in data set [1] (x1 = 0.333) came to 1.4691 ± 0.0007.

Turning to `O=C(O)CC(=O)O` [propanedioic acid] + C[N+](C)(C)CCO.[Cl-], in data set [1] (x2 = 0.5), the refractive index stood at 1.4866 ± 0.0008.

With `O` [water], the refractive index in data set [2] is 1.332 ± 0.0007.

Source of the values: the NIST ThermoML archive (doi:10.1016/j.jct.2016.10.002).
